Assays:
PIKFYVE [1] = molecular target: T1, PIKFYVE (Homo sapiens, UniProt Q9Y2I7); experiment: PIKFYVE assay (luciferase ADP-Glo kinase assay, Promega); format: biochemical; conditions: Table 3
Outline: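 ADP generated in the kinase reaction was detected by ADP-Glo luminescence (luciferase).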

PIKFYVE [2] = molecular target: T1, PIKFYVE; experiment: Cell-based Pikfyve inhibition activity assay (EEA1 staining, mean vesicle size in BJ fibroblast cells); conditions: Table 4, 4 hours treatment, 3 μM Apilimod = 100% inhibition
Outline: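 BJ fibroblasts treated 4 h at 37° C with eleven 3-fold doses (0.03-3000 nM), then fixed and stained for EEA1. Confocal images (20×, 16 tiles/well) analysed for mean vesicle size. Normalised to 0.5% DMSO (0%) and 3 μM apilimod (100%); dose-response fitted with variable slope.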

T1 sequence (Q9Y2I7 whole entry): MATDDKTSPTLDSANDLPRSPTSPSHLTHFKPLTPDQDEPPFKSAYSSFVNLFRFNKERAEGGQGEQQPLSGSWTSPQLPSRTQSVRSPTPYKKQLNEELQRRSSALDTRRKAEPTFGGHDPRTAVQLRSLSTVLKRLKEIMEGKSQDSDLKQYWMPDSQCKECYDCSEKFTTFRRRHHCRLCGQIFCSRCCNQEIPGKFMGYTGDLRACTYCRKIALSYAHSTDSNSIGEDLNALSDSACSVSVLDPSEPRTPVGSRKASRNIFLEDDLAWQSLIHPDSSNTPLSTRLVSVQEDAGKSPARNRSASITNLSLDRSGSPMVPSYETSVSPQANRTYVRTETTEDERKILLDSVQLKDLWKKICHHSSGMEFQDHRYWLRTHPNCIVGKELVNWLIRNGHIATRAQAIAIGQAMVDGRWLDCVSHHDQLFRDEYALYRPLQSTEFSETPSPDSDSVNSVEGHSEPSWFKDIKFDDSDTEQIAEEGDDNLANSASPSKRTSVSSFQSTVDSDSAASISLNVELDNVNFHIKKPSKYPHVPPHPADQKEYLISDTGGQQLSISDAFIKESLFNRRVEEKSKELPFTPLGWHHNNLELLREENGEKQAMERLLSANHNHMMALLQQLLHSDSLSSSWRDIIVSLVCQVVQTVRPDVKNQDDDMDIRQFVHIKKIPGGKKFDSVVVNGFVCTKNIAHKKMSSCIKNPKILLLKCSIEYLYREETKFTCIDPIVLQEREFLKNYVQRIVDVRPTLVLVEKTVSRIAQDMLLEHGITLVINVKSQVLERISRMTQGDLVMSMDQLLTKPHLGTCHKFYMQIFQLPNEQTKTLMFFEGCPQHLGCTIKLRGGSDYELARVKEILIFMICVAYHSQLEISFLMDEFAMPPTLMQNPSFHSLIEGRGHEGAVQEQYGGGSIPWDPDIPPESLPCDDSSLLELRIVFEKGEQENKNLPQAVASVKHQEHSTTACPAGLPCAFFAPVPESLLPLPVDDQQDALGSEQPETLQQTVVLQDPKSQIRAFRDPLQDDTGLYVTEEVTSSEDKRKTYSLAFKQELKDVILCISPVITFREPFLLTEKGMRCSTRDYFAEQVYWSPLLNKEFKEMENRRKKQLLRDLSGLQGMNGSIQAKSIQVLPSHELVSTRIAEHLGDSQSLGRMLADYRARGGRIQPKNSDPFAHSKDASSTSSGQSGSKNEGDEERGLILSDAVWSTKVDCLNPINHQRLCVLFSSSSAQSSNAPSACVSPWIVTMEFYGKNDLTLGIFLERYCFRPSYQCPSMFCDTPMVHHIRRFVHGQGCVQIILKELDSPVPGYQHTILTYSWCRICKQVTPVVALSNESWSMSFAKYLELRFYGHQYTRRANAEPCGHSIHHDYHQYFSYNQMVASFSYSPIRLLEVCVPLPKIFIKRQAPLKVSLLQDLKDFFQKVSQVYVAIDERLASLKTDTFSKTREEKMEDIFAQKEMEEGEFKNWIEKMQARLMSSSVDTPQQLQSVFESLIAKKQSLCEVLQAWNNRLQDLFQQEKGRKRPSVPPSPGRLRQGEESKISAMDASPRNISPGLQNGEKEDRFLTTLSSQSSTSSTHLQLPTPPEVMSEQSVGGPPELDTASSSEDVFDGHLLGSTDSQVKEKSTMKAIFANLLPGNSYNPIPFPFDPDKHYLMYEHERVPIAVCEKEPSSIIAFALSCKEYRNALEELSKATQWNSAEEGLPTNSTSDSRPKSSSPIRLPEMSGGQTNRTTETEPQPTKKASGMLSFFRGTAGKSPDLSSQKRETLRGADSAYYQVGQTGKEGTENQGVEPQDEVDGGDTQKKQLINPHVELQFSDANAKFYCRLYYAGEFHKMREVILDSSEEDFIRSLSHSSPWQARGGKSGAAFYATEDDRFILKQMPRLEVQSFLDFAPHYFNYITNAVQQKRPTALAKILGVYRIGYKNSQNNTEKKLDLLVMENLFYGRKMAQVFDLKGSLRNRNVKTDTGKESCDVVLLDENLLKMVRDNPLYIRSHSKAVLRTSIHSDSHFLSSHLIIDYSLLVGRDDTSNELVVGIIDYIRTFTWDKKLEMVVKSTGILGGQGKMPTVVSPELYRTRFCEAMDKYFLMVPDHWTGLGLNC

Compound | IC50 (PIKFYVE [1]) | EC50 (PIKFYVE [2])
Cc1cccc(-c2cc(CN(C)C)n(-c3cc(N4CCOCC4)c4[nH]ccc4n3)n2)c1 [Compound 242, N,N-dimethyl-1-(1-(7-morpholino-1H-pyrrolo[3,2-b]pyridin-5-yl)-3-(m-tolyl)-1H-pyrazol-5-yl)] | 3 to 10 nM | 500 to 5000 nM
Cc1cc(-c2cccc3c2OCCN3)nn1-c1cc(N2CCOCC2)nc(OCCc2cnn(C)c2)n1 [Compound 245, 8-(5-methyl-1-(2-(2-(1-methyl-1H-pyrazol-4-yl)ethoxy)-6-morpholinopyrimidin-4-yl)-1H-pyrazol-3-yl)-3,4-dihydro-2H-benzo[b][1,4]oxazine] | 10 to 100 nM | > 5000 nM
COc1cccc(-c2ccn(-c3cc(N4CCOCC4)nc([C@@H](CO)OC)n3)n2)c1 [Compound 262, (S)-2-methoxy-2-(4-(3-(3-methoxyphenyl)-1H-pyrazol-1-yl)-6-morpholinopyrimidin-2-yl)ethan-1-ol] | 10 to 100 nM | 100 to 500 nM
COc1cccc(-c2ccn(-c3cc(N4CCOCC4)nc([C@H](CO)OC)n3)n2)c1 [Compound 263, (R)-2-methoxy-2-(4-(3-(3-methoxyphenyl)-1H-pyrazol-1-yl)-6-morpholinopyrimidin-2-yl)ethan-1-ol] | 10 to 100 nM | 100 to 500 nM
CO[C@H](CO)c1nc(N2CCOCC2)cc(-n2ccc(-c3cccc4[nH]ccc34)n2)n1 [Compound 268, (S)-2-(4-(3-(1H-indol-4-yl)-1H-pyrazol-1-yl)-6-morpholinopyrimidin-2-yl)-2-methoxyethan-1-ol] | 10 to 100 nM | 500 to 5000 nM
CO[C@@H](CO)c1nc(N2CCOCC2)cc(-n2ccc(-c3cccc4[nH]ccc34)n2)n1 [Compound 269, (R)-2-(4-(3-(1H-indol-4-yl)-1H-pyrazol-1-yl)-6-morpholinopyrimidin-2-yl)-2-methoxyethan-1-ol] | 10 to 100 nM | 500 to 5000 nM
CCc1cccc(-c2ccn(-c3cc(N4CCOCC4)nc([C@@H](CO)OC)n3)n2)c1 [Compound 272, (S)-2-(4-(3-(3-ethylphenyl)-1H-pyrazol-1-yl)-6-morpholinopyrimidin-2-yl)-2-methoxyethan-1-ol] | 3 to 10 nM | 100 to 500 nM
CCc1cccc(-c2ccn(-c3cc(N4CCOCC4)nc([C@H](CO)OC)n3)n2)c1 [Compound 273, (R)-2-(4-(3-(3-ethylphenyl)-1H-pyrazol-1-yl)-6-morpholinopyrimidin-2-yl)-2-methoxyethan-1-ol] | 3 to 10 nM | 100 to 500 nM
CO[C@H](CO)c1nc(N2CCOCC2)cc(-n2ccc(-c3cccc4ncsc34)n2)n1 [Compound 274, (S)-2-(4-(3-(benzo[d]thiazol-7-yl)-1H-pyrazol-1-yl)-6-morpholinopyrimidin-2-yl)-2-methoxyethan-1-ol] | 100 to 5000 nM | > 5000 nM
CO[C@@H](CO)c1nc(N2CCOCC2)cc(-n2ccc(-c3cccc4ncsc34)n2)n1 [Compound 275, (R)-2-(4-(3-(benzo[d]thiazol-7-yl)-1H-pyrazol-1-yl)-6-morpholinopyrimidin-2-yl)-2-methoxyethan-1-ol] | 100 to 5000 nM | > 5000 nM
COCc1cccc(-c2ccn(-c3cc(N4CCOCC4)nc([C@@H](CO)OC)n3)n2)c1 [Compound 276, (S)-2-methoxy-2-(4-(3-(3-(methoxymethyl)phenyl)-1H-pyrazol-1-yl)-6-morpholinopyrimidin-2-yl)ethan-1-ol] | 3 to 10 nM | 100 to 500 nM
COCc1cccc(-c2ccn(-c3cc(N4CCOCC4)nc([C@H](CO)OC)n3)n2)c1 [Compound 277, (R)-2-methoxy-2-(4-(3-(3-(methoxymethyl)phenyl)-1H-pyrazol-1-yl)-6-morpholinopyrimidin-2-yl)ethan-1-ol] | 3 to 10 nM | 100 to 500 nM

The next lines start with the values.

IC50 (PIKFYVE [1]) | EC50 (PIKFYVE [2]) | Compound
< 3 nM | 500 to 5000 nM | CO[C@H](CO)c1nc(N2CCOCC2)cc(-n2nc(-c3csc4ccccc34)cc2C)n1 [Compound 278, (S)-2-(4-(3-(benzo[b]thiophen-3-yl)-5-methyl-1H-pyrazol-1-yl)-6-morpholinopyrimidin-2-yl)-2-methoxyethan-1-ol]
3 to 10 nM | 500 to 5000 nM | CO[C@@H](CO)c1nc(N2CCOCC2)cc(-n2nc(-c3csc4ccccc34)cc2C)n1 [Compound 279, (R)-2-(4-(3-(benzo[b]thiophen-3-yl)-5-methyl-1H-pyrazol-1-yl)-6-morpholinopyrimidin-2-yl)-2-methoxyethan-1-ol]
10 to 100 nM | 20 to 100 nM | CO[C@H](CO)c1nc(N2CCOCC2)cc(-n2ccc(-c3c[nH]c4ncccc34)n2)n1 [Compound 292, (S)-2-(4-(3-(1H-pyrrolo[2,3-b]pyridin-3-yl)-1H-pyrazol-1-yl)-6-morpholinopyrimidin-2-yl)-2-methoxyethan-1-ol]
10 to 100 nM | 100 to 500 nM | CO[C@@H](CO)c1nc(N2CCOCC2)cc(-n2ccc(-c3c[nH]c4ncccc34)n2)n1 [Compound 293, (R)-2-(4-(3-(1H-pyrrolo[2,3-b]pyridin-3-yl)-1H-pyrazol-1-yl)-6-morpholinopyrimidin-2-yl)-2-methoxyethan-1-ol]
3 to 10 nM | 100 to 500 nM | Cc1cccc(-c2ccn(-c3cc(N4CCOCC4)nc(COCc4cn(C)cn4)n3)n2)c1 [Compound 297, 4-(2-(((1-methyl-1H-imidazol-4-yl)methoxy)methyl)-6-(3-(m-tolyl)-1H-pyrazol-1-yl)pyrimidin-4-yl)morpholine]
3 to 10 nM | 500 to 5000 nM | Cn1cc(COCc2nc(N3CCOCC3)cc(-n3ccc(-c4ccccc4)n3)n2)cn1 [Compound 298, 4-(2-(((1-methyl-1H-pyrazol-4-yl)methoxy)methyl)-6-(3-phenyl-1H-pyrazol-1-yl)pyrimidin-4-yl)morpholine]
< 3 nM | 20 to 100 nM | Cc1cccc(-c2ccn(-c3cc(N4CCOCC4)nc(COCc4cnn(C)c4)n3)n2)c1 [Compound 299, 4-(2-(((1-methyl-1H-pyrazol-4-yl)methoxy)methyl)-6-(3-(m-tolyl)-1H-pyrazol-1-yl)pyrimidin-4-yl)morpholine]
< 3 nM | 20 to 100 nM | Cc1cccc(-c2ccn(-c3cc(N4CCOCC4)nc(COCc4cn[nH]c4)n3)n2)c1 [Compound 300, 4-(2-(((1H-pyrazol-4-yl)methoxy)methyl)-6-(3-(m-tolyl)-1H-pyrazol-1-yl)pyrimidin-4-yl)morpholine]
10 to 100 nM | > 5000 nM | Cc1cc(Oc2ccn(-c3cc(N4CCOCC4)nc(OCCc4cnn(C)c4)n3)n2)ccn1 [Compound 302, 4-(2-(2-(1-methyl-1H-pyrazol-4-yl)ethoxy)-6-(3-((2-methylpyridin-4-yl)ox)-1H-pyrazol-1-yl)pyrimidin-4-yl)morpholine]
100 to 5000 nM | > 5000 nM | Cn1cc(CCOc2nc(N3CCOCC3)cc(-n3ccc(Oc4ccncc4)n3)n2)cn1 [Compound 303, 4-(2-(2-(1-methyl-1H-pyrazol-4-yl)ethoxy)-6-(3-(pyridin-4-yloxy)-1H-pyrazol-1-yl)pyrimidin-4-yl)morpholine]
3 to 10 nM | 20 to 100 nM | Cc1cccc(-c2ccn(-c3cc(N4CCOCC4)nc(/C=C/c4cnn(C)c4)n3)n2)c1 [Compound 304, (E)-4-(2-(2-(1-methyl-1H-pyrazol-4-yl)vinyl)-6-(3-(m-tolyl)-1H-pyrazol-1-yl)pyrimidin-4-yl)morpholine]
